Assay results published in ChEMBL document CHEMBL5465560, “Selectivity Literature for EUbOPEN Chemogenomic Library” (2024).
Values belong to the compound of their own block, whether it stands above or below them.

Tests used:
[1] = biological target: T1, Testis-specific serine/threonine-protein kinase 3 (Homo sapiens) (UniProt Q96PN8); assay: Selectivity interaction (KinomeScan (DiscoverX)) EUB0001049a TSSK3; settings: at 1 µM
T1 sequence (whole entry): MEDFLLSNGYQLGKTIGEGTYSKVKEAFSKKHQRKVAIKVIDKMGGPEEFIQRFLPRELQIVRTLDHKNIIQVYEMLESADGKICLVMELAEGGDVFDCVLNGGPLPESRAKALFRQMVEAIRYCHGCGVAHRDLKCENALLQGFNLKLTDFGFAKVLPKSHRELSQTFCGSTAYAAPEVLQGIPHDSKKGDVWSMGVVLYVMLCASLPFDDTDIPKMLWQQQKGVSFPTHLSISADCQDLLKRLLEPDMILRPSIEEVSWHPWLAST

[2] = biological target: T2, Protein kinase C zeta type (Homo sapiens) (UniProt Q05513); assay: Selectivity interaction (Kinase panel (Invitrogen)) EUB0000639a PRKCZ; settings: at 200 nM
T2 sequence (whole entry): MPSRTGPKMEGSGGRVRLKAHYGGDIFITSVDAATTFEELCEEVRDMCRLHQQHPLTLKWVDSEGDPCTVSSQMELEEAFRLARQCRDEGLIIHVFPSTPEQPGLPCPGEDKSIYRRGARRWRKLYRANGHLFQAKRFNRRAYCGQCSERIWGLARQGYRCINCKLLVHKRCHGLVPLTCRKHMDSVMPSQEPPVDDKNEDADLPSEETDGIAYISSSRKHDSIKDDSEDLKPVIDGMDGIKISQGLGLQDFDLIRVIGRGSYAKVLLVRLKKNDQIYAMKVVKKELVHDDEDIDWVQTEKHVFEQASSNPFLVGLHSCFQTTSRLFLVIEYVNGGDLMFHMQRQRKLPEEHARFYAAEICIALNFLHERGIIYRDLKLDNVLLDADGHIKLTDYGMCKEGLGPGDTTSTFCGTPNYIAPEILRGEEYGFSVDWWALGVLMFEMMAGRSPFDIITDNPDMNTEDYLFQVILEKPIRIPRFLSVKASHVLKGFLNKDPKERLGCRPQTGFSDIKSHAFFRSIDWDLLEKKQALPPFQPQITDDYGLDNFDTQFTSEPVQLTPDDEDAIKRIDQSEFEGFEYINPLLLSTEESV

[3] = biological target: Aurora kinase B (Homo sapiens, UniProt Q96GD4); assay: Selectivity interaction (Kinase panel (Invitrogen)) EUB0000639a AURKB; settings: at 200 nM
Aurora kinase B, sequence (Q96GD4 whole entry): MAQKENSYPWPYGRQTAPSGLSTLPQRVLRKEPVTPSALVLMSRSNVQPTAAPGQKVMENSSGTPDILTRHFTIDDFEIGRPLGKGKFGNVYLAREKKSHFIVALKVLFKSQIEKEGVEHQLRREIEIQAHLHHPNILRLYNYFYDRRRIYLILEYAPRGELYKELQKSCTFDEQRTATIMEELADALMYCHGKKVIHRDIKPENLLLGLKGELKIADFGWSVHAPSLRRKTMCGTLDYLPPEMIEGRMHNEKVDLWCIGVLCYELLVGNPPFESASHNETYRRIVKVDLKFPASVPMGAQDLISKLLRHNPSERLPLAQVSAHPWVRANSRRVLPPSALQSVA

[4] = biological target: T3, Dual specificity mitogen-activated protein kinase kinase 5 (Homo sapiens) (UniProt Q13163); assay: Selectivity interaction (Kinase panel (Carna Biosciences)) EUB0001542aTs MAP2K5; settings: at 1 µM
T3 sequence (whole entry): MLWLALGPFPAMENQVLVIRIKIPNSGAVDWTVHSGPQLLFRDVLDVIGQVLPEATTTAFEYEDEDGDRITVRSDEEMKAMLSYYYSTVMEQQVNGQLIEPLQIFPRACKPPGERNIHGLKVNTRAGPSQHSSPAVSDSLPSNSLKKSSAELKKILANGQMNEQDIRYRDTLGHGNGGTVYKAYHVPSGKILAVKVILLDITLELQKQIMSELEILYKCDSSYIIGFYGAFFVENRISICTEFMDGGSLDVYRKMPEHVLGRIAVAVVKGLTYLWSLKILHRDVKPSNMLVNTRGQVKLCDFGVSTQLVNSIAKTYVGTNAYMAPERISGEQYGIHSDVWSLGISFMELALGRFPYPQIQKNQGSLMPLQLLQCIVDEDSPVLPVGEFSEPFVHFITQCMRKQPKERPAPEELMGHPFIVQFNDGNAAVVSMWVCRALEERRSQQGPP

[5] = biological target: Serine/threonine-protein kinase 32B (Homo sapiens) (UniProt Q9NY57); assay: Selectivity interaction (KinomeScan (DiscoverX)) EUB0000695a STK32B; settings: at 100 nM
Serine/threonine-protein kinase 32B (Homo sapiens), sequence (Q9NY57 whole entry): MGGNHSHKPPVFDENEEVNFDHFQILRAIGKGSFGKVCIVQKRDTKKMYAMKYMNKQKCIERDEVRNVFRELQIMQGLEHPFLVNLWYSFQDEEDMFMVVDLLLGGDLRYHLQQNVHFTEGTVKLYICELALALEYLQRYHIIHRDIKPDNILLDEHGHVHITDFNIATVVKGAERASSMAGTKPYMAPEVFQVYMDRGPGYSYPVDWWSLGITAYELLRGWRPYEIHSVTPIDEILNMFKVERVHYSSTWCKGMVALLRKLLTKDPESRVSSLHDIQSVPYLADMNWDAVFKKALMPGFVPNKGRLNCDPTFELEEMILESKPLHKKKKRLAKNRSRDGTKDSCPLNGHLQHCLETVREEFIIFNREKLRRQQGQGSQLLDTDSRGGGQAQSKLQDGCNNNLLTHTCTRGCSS

[6] = biological target: Mitogen-activated protein kinase kinase kinase 4 (Homo sapiens) (UniProt Q9Y6R4); assay: Selectivity interaction (KinomeScan (DiscoverX)) EUB0000595a MAP3K4; settings: at 10 µM
Mitogen-activated protein kinase kinase kinase 4 (Homo sapiens), sequence (Q9Y6R4 whole entry, canonical isoform): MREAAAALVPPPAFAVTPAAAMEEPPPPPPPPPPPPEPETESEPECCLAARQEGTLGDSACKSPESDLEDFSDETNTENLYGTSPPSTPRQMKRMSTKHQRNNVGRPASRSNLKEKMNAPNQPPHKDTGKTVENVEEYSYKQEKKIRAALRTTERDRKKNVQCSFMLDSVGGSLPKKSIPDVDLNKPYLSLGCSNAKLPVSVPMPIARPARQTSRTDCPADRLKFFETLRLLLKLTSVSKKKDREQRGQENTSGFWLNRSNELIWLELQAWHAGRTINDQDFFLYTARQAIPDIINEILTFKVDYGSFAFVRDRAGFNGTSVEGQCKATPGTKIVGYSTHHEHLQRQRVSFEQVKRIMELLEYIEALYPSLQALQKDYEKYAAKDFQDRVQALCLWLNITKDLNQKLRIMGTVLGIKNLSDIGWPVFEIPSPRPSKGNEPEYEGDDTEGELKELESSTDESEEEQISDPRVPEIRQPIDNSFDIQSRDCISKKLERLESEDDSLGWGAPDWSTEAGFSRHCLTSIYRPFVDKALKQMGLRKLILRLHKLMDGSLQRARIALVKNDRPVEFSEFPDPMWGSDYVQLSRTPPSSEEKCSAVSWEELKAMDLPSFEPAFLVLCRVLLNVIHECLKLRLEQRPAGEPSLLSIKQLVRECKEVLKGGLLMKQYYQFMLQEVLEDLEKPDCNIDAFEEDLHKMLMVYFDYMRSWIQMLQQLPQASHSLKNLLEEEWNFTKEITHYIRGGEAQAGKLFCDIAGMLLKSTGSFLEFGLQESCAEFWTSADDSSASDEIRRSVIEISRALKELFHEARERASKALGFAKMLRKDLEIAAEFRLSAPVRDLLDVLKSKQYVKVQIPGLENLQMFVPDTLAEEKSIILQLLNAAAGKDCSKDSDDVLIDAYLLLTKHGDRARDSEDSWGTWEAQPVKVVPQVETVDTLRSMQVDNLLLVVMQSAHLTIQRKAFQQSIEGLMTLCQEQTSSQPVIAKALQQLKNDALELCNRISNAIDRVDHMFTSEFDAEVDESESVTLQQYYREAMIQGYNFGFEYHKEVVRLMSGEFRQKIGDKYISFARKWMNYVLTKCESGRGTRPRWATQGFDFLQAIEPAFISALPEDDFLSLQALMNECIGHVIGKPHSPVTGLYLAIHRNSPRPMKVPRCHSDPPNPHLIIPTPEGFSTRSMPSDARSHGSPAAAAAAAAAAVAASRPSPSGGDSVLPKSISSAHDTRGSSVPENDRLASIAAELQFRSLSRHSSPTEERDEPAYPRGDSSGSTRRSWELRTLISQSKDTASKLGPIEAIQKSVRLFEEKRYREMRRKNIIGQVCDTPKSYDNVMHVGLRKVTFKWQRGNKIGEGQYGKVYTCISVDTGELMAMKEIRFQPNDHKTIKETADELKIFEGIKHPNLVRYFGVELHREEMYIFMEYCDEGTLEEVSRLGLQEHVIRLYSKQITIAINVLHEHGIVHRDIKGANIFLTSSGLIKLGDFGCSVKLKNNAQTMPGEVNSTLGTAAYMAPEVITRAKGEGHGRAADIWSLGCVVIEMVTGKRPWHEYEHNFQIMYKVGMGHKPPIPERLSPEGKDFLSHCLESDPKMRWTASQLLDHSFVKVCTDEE

[7] = biological target: Casein kinase I isoform gamma-1 (Homo sapiens) (UniProt Q9HCP0); assay: Selectivity interaction (KinomeScan (DiscoverX)) EUB0000229b CSNK1G1; settings: at 10 µM
Casein kinase I isoform gamma-1 (Homo sapiens), sequence (Q9HCP0 whole entry, looked up, canonical isoform): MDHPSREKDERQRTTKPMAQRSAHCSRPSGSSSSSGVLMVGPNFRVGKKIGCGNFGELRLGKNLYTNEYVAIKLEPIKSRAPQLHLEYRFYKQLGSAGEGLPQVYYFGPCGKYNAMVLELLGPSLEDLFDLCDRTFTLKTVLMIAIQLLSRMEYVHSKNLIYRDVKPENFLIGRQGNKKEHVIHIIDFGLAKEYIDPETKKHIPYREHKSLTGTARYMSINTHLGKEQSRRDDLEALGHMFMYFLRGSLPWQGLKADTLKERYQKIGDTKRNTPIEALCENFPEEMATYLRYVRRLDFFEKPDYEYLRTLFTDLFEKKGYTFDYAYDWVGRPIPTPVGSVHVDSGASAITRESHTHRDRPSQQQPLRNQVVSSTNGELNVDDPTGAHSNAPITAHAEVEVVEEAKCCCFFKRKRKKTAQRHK

[8] = biological target: Calcium/calmodulin-dependent protein kinase kinase 1 (Homo sapiens) (UniProt Q8N5S9); assay: Selectivity interaction (KinomeScan (DiscoverX)) EUB0001079a CAMKK1; settings: at 1 µM
Calcium/calmodulin-dependent protein kinase kinase 1 (Homo sapiens), sequence (Q8N5S9 whole entry, looked up): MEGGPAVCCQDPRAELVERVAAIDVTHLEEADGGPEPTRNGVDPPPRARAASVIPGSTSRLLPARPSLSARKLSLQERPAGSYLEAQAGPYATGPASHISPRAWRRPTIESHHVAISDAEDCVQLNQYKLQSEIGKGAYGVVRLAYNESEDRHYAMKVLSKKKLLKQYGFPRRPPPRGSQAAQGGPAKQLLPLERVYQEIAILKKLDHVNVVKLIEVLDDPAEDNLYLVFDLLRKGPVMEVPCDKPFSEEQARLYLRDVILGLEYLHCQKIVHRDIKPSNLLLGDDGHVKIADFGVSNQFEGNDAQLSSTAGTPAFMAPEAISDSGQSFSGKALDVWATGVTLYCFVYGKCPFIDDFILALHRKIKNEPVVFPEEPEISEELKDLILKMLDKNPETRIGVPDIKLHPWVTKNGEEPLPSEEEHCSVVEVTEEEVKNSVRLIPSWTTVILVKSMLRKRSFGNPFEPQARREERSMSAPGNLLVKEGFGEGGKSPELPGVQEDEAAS

[9] = biological target: Calcium/calmodulin-dependent protein kinase type 1D (Homo sapiens) (UniProt Q8IU85); assay: Selectivity interaction (KinomeScan (DiscoverX)) EUB0000092b CAMK1D; settings: at 10 µM
Calcium/calmodulin-dependent protein kinase type 1D (Homo sapiens), sequence (Q8IU85 whole entry, looked up): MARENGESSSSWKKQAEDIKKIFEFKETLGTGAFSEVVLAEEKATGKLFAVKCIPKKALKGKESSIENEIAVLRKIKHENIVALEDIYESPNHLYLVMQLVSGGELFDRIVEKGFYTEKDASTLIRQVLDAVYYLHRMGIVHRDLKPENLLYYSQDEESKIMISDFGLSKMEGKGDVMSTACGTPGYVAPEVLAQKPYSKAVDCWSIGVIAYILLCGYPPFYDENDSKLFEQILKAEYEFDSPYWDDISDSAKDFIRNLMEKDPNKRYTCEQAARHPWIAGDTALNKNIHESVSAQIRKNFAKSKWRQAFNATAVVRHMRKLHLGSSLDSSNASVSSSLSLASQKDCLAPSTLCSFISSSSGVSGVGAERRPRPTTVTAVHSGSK

[10] = biological target: T4, Serine/threonine-protein kinase MAK (Homo sapiens) (UniProt P20794); assay: Selectivity interaction (KinomeScan (DiscoverX)) EUB0000655a MAK; settings: at 10 µM
T4 sequence (whole entry): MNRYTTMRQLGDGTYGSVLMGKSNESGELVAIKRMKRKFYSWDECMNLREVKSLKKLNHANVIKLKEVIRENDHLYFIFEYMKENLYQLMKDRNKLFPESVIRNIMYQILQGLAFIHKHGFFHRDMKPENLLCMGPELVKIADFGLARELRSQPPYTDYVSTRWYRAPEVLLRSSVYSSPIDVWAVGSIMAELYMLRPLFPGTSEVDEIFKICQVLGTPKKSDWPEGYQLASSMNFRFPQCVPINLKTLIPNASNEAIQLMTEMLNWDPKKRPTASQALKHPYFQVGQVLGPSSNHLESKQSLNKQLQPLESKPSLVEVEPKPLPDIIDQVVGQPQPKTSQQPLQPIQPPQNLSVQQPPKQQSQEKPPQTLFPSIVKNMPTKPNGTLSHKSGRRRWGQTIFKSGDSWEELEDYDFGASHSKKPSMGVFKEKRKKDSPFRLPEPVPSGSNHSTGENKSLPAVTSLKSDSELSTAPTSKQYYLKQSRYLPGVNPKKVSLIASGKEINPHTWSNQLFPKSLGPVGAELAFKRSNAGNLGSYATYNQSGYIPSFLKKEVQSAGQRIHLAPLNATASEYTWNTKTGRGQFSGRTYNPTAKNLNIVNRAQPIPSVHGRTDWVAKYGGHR

[11] = biological target: Serine/threonine-protein kinase pim-1 (Homo sapiens, UniProt P11309); assay: Selectivity interaction (KinomeScan (DiscoverX)) EUB0000666a PIM1; settings: at 10 µM
Serine/threonine-protein kinase pim-1, sequence (P11309 whole entry, looked up): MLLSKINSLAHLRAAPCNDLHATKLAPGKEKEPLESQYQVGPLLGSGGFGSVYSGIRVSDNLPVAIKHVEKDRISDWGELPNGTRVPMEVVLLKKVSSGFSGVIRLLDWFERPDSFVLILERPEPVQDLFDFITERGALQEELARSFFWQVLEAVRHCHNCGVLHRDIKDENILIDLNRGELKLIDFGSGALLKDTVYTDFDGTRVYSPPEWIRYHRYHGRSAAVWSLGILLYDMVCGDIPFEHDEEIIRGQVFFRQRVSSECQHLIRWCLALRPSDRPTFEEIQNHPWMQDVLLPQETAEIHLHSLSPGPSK

[12] = biological target: Calcium/calmodulin-dependent protein kinase type II subunit beta (Homo sapiens) (UniProt Q13554); assay: Selectivity interaction (Kinase panel (DSF assay)) EUB0001558a CAMK2B
Calcium/calmodulin-dependent protein kinase type II subunit beta (Homo sapiens), sequence (Q13554 whole entry): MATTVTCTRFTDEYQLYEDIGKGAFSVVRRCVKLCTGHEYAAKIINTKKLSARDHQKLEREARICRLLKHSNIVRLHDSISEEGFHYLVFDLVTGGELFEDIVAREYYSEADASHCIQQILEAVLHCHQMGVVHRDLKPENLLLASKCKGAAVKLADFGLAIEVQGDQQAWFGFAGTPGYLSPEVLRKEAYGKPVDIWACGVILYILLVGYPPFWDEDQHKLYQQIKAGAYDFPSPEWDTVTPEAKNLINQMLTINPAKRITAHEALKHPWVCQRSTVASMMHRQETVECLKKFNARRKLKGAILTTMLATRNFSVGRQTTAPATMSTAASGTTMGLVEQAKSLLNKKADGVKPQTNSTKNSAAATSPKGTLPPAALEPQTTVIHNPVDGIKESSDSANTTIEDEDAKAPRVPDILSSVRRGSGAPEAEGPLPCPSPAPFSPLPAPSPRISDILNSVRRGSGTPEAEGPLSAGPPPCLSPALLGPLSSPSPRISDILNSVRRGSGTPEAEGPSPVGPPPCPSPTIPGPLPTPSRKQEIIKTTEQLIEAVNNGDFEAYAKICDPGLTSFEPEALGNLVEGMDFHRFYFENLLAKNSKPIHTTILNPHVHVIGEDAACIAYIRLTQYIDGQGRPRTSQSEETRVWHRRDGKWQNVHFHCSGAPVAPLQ

[13] = biological target: Mitogen-activated protein kinase kinase kinase kinase 4 (Homo sapiens, UniProt O95819); assay: Selectivity interaction (SelectScreen Kinase Profiling (Thermo Fisher Scientific)) EUB0001558a MAP4K4; settings: at 1 µM

SMILES: COc1cc(Nc2nc(C)cc(-c3cnn4nc(OC)ccc34)n2)cc(C(F)(F)F)c1
- % of control [1]: 100%

- % of inhibition [2]: 6.26%
- % of inhibition [3]: 11.3%
SMILES: CC[C@@H]1[C@H](F)C(=O)N[C@@H]1COc1nccc2cc(C(N)=O)c(OC)cc12 [ZIMLOVISERTIB]

- % of inhibition [4]: 70%
SMILES: Cn1cc(Nc2nccc(N3CC4CCC(C3)N4C(=O)[C@@H]3CC3(F)F)n2)cn1

SMILES: Cc1cc(F)c(C(=O)Nc2cccc(-c3nncn3C(C)C)n2)cc1-n1cnc(C2CC2)c1
- % of control [5]: 93%

SMILES: COCC(=O)NC/C=C/c1ccc2ncnc(Nc3ccc(Oc4ccc(C)nc4)c(C)c3)c2c1 [CP-724714]
- % of control [6]: 97%

SMILES: COc1cc(N(C)c2ccnc3ccc(C(F)(F)F)cc23)cc(OC)c1OC
- % binding [7]: 76%

SMILES: Nc1cnc(N2CCc3cc(S(=O)(=O)Nc4c(F)cc(Cl)cc4F)cc(N4CCCC4=O)c32)nc1 [TP-020n]
- % of control [8]: 100%

SMILES: CCC(=O)N1CCN(c2ccc(-n3c(=O)ccc4cnc5ccc(-c6cnc7ccccc7c6)cc5c43)cc2C(F)(F)F)CC1
- % of control [9]: 88%

SMILES: CN(C)CCOc1ccc(-c2nc(-c3ccncc3)c(-c3ccc4c(c3)CC/C4=N\O)[nH]2)cc1
- % of control [10]: 100%

SMILES: O=C(NOC[C@H](O)CO)c1ccc(F)c(F)c1Nc1ccc(I)cc1F
- % of control [11]: 100%

SMILES: CC(C)(O)[C@H](F)CN1Cc2cc(NC(=O)c3cnn4cccnc34)c(N3CCOCC3)cc2C1=O
- dTM [12]: 0.1 K
- % of inhibition [13]: 86.3%
